pEC50, pKd: −log10 of the molar value.
Tests used:
Assay type in all cases: binding
[1] = target: DCAF15-DDB1(ΔBPB)-DDA1 and RBM39(Δ150) mixture (Homo sapiens, UniProt Q14498+Q66K64); assay: isothermal titration calorimetry
[2] = target: DCAF15-DDB1-DDA1 with RBM39(Δ150) (Homo sapiens, UniProt Q14498+Q66K64); assay: TR-FRET ternary complex recruitment assay
DCAF15-DDB1(ΔBPB)-DDA1 = DCAF15-DDB1(ΔBPB)-DDA1 (Homo sapiens, UniProt Q66K64); assay: isothermal titration calorimetry
RBM39(Δ150) = target: T1, RBM39(Δ150) (Homo sapiens, UniProt Q14498); assay: isothermal titration calorimetry
T1 sequence (Q14498 151-530): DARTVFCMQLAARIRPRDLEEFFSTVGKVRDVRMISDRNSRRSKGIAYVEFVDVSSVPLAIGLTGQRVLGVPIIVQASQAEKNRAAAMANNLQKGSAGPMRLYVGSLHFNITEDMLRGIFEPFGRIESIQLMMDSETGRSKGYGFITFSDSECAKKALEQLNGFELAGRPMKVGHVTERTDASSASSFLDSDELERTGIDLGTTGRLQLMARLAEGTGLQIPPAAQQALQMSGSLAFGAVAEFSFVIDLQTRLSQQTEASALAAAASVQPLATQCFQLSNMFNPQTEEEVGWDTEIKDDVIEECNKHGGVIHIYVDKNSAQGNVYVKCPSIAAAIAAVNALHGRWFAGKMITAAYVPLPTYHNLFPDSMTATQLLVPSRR

| pEC50 [2] | Compound | other results |
| --- | --- | --- |
| 5.47 | NS(=O)(=O)c1ccc(S(=O)(=O)Nc2cccc3c(Cl)c[nH]c23)cc1 [Indisulam] | pKd [1]: 6.73; pKd (DCAF15-DDB1(ΔBPB)-DDA1): ~4.77; pKd (RBM39(Δ150)): < 4.30 |
| 4.85 | Cc1c[nH]c2c(NS(=O)(=O)c3ccc(S(N)(=O)=O)cc3)cccc12 [compound 1, N-(3-methyl-1H-indol-7-yl)benzene-1,4-disulfonamide] | – |
| 5.92 | N#Cc1c[nH]c2c(NS(=O)(=O)c3ccc(S(N)(=O)=O)cc3)cccc12 [compound 2, N-(3-cyano-1H-indol-7-yl)benzene-1,4-disulfonamide] | – |
| < 4.30 | NS(=O)(=O)c1ccc(S(=O)(=O)Nc2cccc3cc[nH]c23)cc1 [compound 3, N-(1H-indol-7-yl)benzene-1,4-disulfonamide] | – |
| 4.91 | Cc1c[nH]c2c(NS(=O)(=O)c3ccc(S(=O)(=O)N(C)C)cc3)cccc12 [compound 4, N^1,N^1-dimethyl-N^4-(3-methyl-1H-indol-7-yl)benzene-1,4-disulfonamide] | – |
| 4.42 | O=S(=O)(Nc1cccc2c(Cl)c[nH]c12)c1ccccc1 [compound 5, N-(3-chloro-1H-indol-7-yl)benzenesulfonamide] | – |
| 5.42 | Cc1ccc(NS(=O)(=O)c2ccc(N)cc2)c2[nH]cc(C#N)c12 [compound 6, Compound 6] | – |
| 5.62 | Cc1ccc(NS(=O)(=O)c2ccc(CN)cc2)c2[nH]cc(C#N)c12 [compound 7, 4-(aminomethyl)-N-(3-cyano-4-methyl-1H-indol-7-yl)benzenesulfonamide] | – |
